Assay results: PubChem BioAssay (NCI)
Several values for one entry are separate records, joined by “and”; a condition that tells them apart may be missing. Equal values may be shown once.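 Where inhibition never reached the appropriate level, the endpoint shown equals the highest concentration tested. Otherwise, values were interpolated linearly from a five-concentration, 48-hour dose response in 96-well plates. Here, GI50 denotes the concentration required for 50% inhibition of growth. TGI is the concentration that stops growth completely.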

Experiments:
Test in all cases: NCI-60 cell line screen, 48 h
SNB-19 CNS = tested on: SNB-19 CNS
OVCAR-3 ovarian = tested on: OVCAR-3 ovarian
U251 CNS = tested on: U251 CNS
UACC-257 melanoma = tested on: UACC-257 melanoma
HL-60(TB) leukemia = tested on: HL-60(TB) leukemia
SK-OV-3 ovarian = tested on: SK-OV-3 ovarian
UACC-62 melanoma = tested on: UACC-62 melanoma
NCI-H522 lung = tested on: NCI-H522 lung
SF-539 CNS = tested on: SF-539 CNS
HS 578T breast = tested on: HS 578T breast

SMILES	GI50 (SNB-19 CNS) [µM]	TGI (SNB-19 CNS) [µM]	GI50 (OVCAR-3 ovarian) [µM]	TGI (OVCAR-3 ovarian)	GI50 (U251 CNS) [µM]	TGI (U251 CNS) [µM]	GI50 (UACC-257 melanoma) [µM]	TGI (UACC-257 melanoma) [µM]	GI50 (HL-60(TB) leukemia) [µM]	TGI (HL-60(TB) leukemia)	GI50 (SK-OV-3 ovarian) [µM]	TGI (SK-OV-3 ovarian) [µM]	TGI (UACC-62 melanoma) [µM]	TGI (NCI-H522 lung) [µM]	TGI (SF-539 CNS) [µM]	GI50 (HS 578T breast) [µM]	TGI (HS 578T breast) [µM]	GI50 (UACC-62 melanoma) [µM]	GI50 (NCI-H522 lung) [µM]	GI50 (SF-539 CNS) [µM]
COc1cccc2c1cc([N+](=O)[O-])c1c(C(=O)O)cc3c(c12)OCO3	33.4	> 100	26.1	71.2 µM and > 100 µM	22.9	> 100	28.7	> 100	35.1	> 100 µM and 51.5 µM	38.4	> 100	> 100	> 100	> 75.8	36.3	> 100			
COC(=O)c1c2c(c(C)[n+]([O-])c1C)C(=O)C(NCc1cccc(OC)c1)=CC2=O	2.42	7	0.512	3.21 µM	2.65	10.6	1.55	3.27	1.78	5.39 µM	3.53	13.6	3.48	5.02	4.15	4.1	34.7	1.7	1.92	2.02
COc1ccc(NC(=O)c2sc3nc(C)c(C(O)c4ccc(OC)cc4)cc3c2N)cc1 (configuration not stated)	1.84	> 50	0.365	5.31 µM	1.43	> 50	11.1	> 50	1.23	> 50 µM	1.89	> 50	> 50	> 50	4.44	0.821	4.09	0.621	1.27	1.02
COc1ccc(/C(Cl)=C(\C=O)c2ccc(OC)c(OC)c2)cc1OC		> 100		> 57.7 µM		> 100		> 66.3		> 100 µM		> 100	> 100	> 100	> 100		> 100			
C[C@@]1(c2ncncc2F)NC(=O)c2cc(-c3cn[nH]c3)ccc21	31.9	> 100	21.9	> 100 µM	29.4	> 100	30.3	98.7	15.8	60.4 µM	18.5	76	70.6	> 100	32.7	23	> 100	18.8	13.1	5.61
COc1cc(-c2nn(C(=O)NS(=O)(=O)c3ccc(C)cc3)cc2-c2ccncc2)ccc1Cl	4.9	38.5	25.2	> 100 µM	6.16	28.5	12.1	60.2	4.63	24.9 µM	3.38	13.6	10.2	26.7	14.7	7.38	> 100	2.28	10.4	3.61
CN(C)CCOc1nc2c3cccnc3cc(-c3cccc(Cl)c3)c2c2ncccc12	1.6	4.32	1.52	4.19 µM	1.56	3.03	1.89	3.6	2.08	4.5 µM	5.05	18.4	4.91	3.06	3.08	1.97	5.06	2.15	1.47	1.65
CS(=O)c1ccc(-c2nc(-c3ccc(F)cc3)c(-c3ccncc3)[nH]2)cc1 (configuration not stated)	> 77.3	> 100	25.9	> 100 µM	38	> 100	16.3	41.6	23	53.1 µM	18.8	> 82	> 66	> 85.6	> 100	33.3	> 100	9.09	28.8	44.8
CCOC(=O)c1c(C)n(CC(C)C)c2c1cc1oc(=O)c(=O)n3cnc2c13	36.2	> 50	11.2	25.9 µM	10	24.1	11.3	30.5	11.5	36.4 µM	20.4	> 50	21.6	> 50	42	11.8	38.5	9.44	> 50	15.6
O=[N+]([O-])c1cc(Cl)cc2c1nc(NCCO)c1ccccc12		> 100		> 100 µM		> 100		54.8		> 56.2 µM		> 100	> 60	62.9	> 100		> 100			
CS(=O)(=O)OCCN(CCOS(C)(=O)=O)c1ccc(C=Nc2ccc3oc(=O)ccc3c2)cc1		80.7		24.1 µM		41.9		26.9		41.3 µM		9.92	19.8	0.828	35.3		92.1			
Cc1[nH]nc2c1N=C(c1ccccc1F)c1cc(C#N)ccc1N2	4.16	13.9	0.0887	8.31 µM	0.215	4.64	9.71	> 25	0.0969	8.71 µM	0.889	> 17	7.37	11.1	4.93	0.122	3.83	3.04	3.72	0.134
O=C(Nc1cccc2cccnc12)c1ccc(N2C(=O)[C@@H]3[C@H](C2=O)[C@@H]2C=C[C@H]3C2)cc1	41.6	> 100	20.7	> 100 µM	16	> 100	30.5	> 100	21	59 µM	> 62.4	> 100	> 86.3	54.4	> 100	40.8	> 100	22.4	18.4	77.8
